Measured values as given in patent publication US20220041578A1, “ISOINDOLINE COMPOUND, AND PREPARATION METHOD, PHARMACEUTICAL COMPOSITION, AND APPLICATION OF ISOINDOLINE COMPOUND” (Shanghai Institute of Meteria Medica, Chinese Academy of …, priority 2018, published 2022).
Like-named read-outs stand apart in the source and are kept apart here.

Tests used:
Type in all cases: cell-based
[1] = system: Mino cells; experiment: Effect of the compound on the proliferation of Mino cells (MTS); settings: Homo sapiens, 72 h, 3 days, read-out: Inhibitory activity (IC50)
Protocol: Mino cells were cultured with 1640 plus […] and collected. The cell concentration was diluted according to the action time of 3 days, and 90 ul cell suspension was added to each well of the 96-well cell plate to make the cell count to be 8000. 10 ul of DMSO with a final concentration of 0.2% was added to the control cell wells. The compound was diluted 5-fold with the 10 mM stock solution, and 10 ul was also added to the compound cell wells (the final concentration of DMSO was 0.2%). The cells were placed in a 37° C., […] incubator and incubated for 3 days. After preparing the reaction solution according to the MTS kit (Promega, G5430), 20 μL was added to each well, incubated in a 37° C., 5% CO2 incubator for 3-4 h. Read the 490 nm absorbance value with a microtiter plate, and used the 690 nm absorbance value as the background value and OD490-OD690 as the final initial data. The formula for calculating the inhibition rate of the compound was: inhibition rate=(OD DMSO-ODcompound)/(ODDMSO-Oblank)×100%. The compound's proliferation inhibition IC50 was fitted by Graph Pad Prism 5.0. The experiment was repeated three times, and three parallel experiments were used to calculate the average and standard deviation each time.

[2] = system: MM.1S cells; experiment: Effect of the compound on the proliferation of MM.1S cells (MTS); settings: Homo sapiens, MM1.S, 168 h, 7 days, read-out: Cell inhibitory activity (IC50)
Protocol: MM.1S cells were cultured with 1640 plus 10% fetal bovine serum and collected. The cell concentration was diluted according to the action time of 7 days, and 180 ul cell suspension was added to each well of the 96-well cell plate to make the cell count to be 20,000. 20 ul of DMSO with a final concentration of 0.2% was added to the control cell wells. The compound was diluted 5-fold with the 10 mM stock solution, and 20 ul was also added to the compound cell wells (the final concentration of DMSO is 0.2%). The cells were placed in a 37° C., 5% CO2 incubator and incubated for 7 days. After preparing the reaction solution according to the MTS kit (Promega, G5430), 20 μL was added to each well, incubated in a 37° C., 5% CO2 incubator for 3-4 h. Read the 490 nm absorbance value with a microtiter plate, and used the 690 nm absorbance value as the background value and OD490-OD690 as the final initial data. The formula for calculating the inhibition rate of the compound is: inhibition rate=(OD DMSO-ODcompound)/(ODDMSO-Oblank)×100%. The compound's proliferation inhibition IC50 was fitted by Graph Pad Prism 5.0. The experiment was repeated three times, and three parallel experiments were used to calculate the average and standard deviation each time.

[3] = system: MV-4-11 cells; experiment: Effect of the compound on proliferation of MV-4-11 cells (MTS); settings: Homo sapiens
Protocol: MV-4-11 cells were cultured with IMDM plus 10% fetal bovine serum and collected. The cell concentration was diluted according to the action time of 7 days, and 180 ul of cell suspension was added to each well of a 96-well cell plate to make the cell count to be 2000. 20 ul of DMSO with a final concentration of 0.2% was added to the control cell wells. The compound was diluted 5-fold with the 10 mM stock solution, and 20 ul was also added to the compound cell wells (the final concentration of DMSO was 0.2%). The cells were placed in a 37° C., 5% CO2 incubator and incubated for 7 days. After preparing the reaction solution according to the MTS kit (Promega, G5430), 20 μL was added to each well, incubated in a 37° C., 5% CO2 incubator for 3-4 h. Read the 490 nm absorbance value with a microtiter plate, and used the 690 nm absorbance value as the background value and OD490-OD690 as the final initial data. The formula for calculating the inhibition rate of the compound was: inhibition rate=(OD DMSO-ODcompound)/(ODDMSO-Oblank)×100%. The compound's proliferation inhibition IC50 was fitted by Graph Pad Prism 5.0. The experiment was repeated three times, and three parallel experiments were used to calculate the average and standard deviation each time. The cell viability test results were shown in Table 3: A means cell viability IC50<1 μM, B means cell viability 1 μM≤IC50≤20 μM, C means cell viability IC50>20 μM.

[4] = MV4-11, 168 h, 7 days, MTS, read-out: Inhibitory activity (IC50)
[5] = MV4-11, read-out: cytostatic activity (IC50) on MV-4-11 cells

Row | Compound | IC50 [2] | IC50 [3, 4] | IC50 [3, 5] | IC50 [1]
1 | O=C1CCC(N2Cc3c(NCc4cnc(-c5cccc(OC(F)(F)F)c5)o4)cccc3C2=O)C(=O)N1 (stereo not shown) [Compound 90] | < 150 nM |  |  | < 150 nM
2 | O=C1CCC(N2Cc3c(OC[C@@H]4CCN(c5ccc(OC(F)(F)F)cc5)C4)cccc3C2=O)C(=O)N1 (stereo partly drawn) [Compound 70, 3-(1-oxo-4-(((R)-1-(4-(trifluoromethoxy)phenyl)pyrrolin-3-)methoxy)isoindolin-2-) piperidine-2,6-dione] | < 150 nM | 1000 to 20000 nM |  | 150 to 20000 nM
3 | O=C1CCC(N2Cc3c(OCc4cn(-c5ccc(O[C@H]6CCOC6)cc5)nn4)cccc3C2=O)C(=O)N1 (stereo partly drawn) [Compound 25, 3-(1-oxo-4-((1-(4-(((S)-tetrahydrofuran-3-)oxy)phenyl)-1H-1,2,3-triazol-4-)methoxy)isoindolin-2-)piperidine-2,6-dione] | < 150 nM |  |  | < 150 nM
4 | O=C1CCC(N2Cc3c(OCc4ncc(-c5ccc(OC(F)(F)F)cc5)o4)cc(F)cc3C2=O)C(=O)N1 (stereo not shown) [Compound 81, 3-(6-fluoro-1-oxo-4-((5-(4-(trifluoromethoxy)phenyl)oxazol-2-yl)methoxy)isoindolin-2-yl) piperidine-2,6-dione] | < 150 nM | < 1000 nM |  | 
5 | O=C1CCC(N2Cc3c(OCc4cnc(-c5ccc(OC(F)(F)F)cc5)s4)cccc3C2=O)C(=O)N1 (stereo not shown) [Compound 44, 3-(1-oxo-4-((2-(4-trifluoromethoxyphenyl)thiazol-5-)methoxy)isoindolin-2-) piperidine-2,6-dione] | < 150 nM |  |  | < 150 nM
6 | O=C1CCC(N2Cc3c(OCc4ncc(-c5ccc(OC(F)(F)F)cc5)s4)cccc3C2=O)C(=O)N1 (stereo not shown) [Compound 39, 3-(1-oxo-4-((5-(4-trifluoromethoxyphenyl)thiazol-2-)methoxy)isoindolin-2-) piperidine-2,6-dione] | < 150 nM |  |  | 150 to 20000 nM
7 | O=C1CCC(N2Cc3c(OCc4cn(C56CC7CC(CC(C7)C5)C6)nn4)cccc3C2=O)C(=O)N1 [Compound 76, 3-(4-((1-((3S, 5S, 7S)-adamantan-1-yl)-1H-1,2,3-triazol-4-yl)methoxy)-1-isoindolin-2-yl) piperidin-2,6-dione] | < 150 nM | < 1000 nM |  | 
8 | O=C1CCC(N2Cc3c(OCc4ccc(-c5ccc(OC(F)(F)F)cc5)o4)cccc3C2=O)C(=O)N1 (stereo not shown) [Compound 42, 3-(1-oxo-4-((5-(4-trifluoromethoxyphenyl)furan-2-)methoxy)isoindolin-2-) piperidine-2,6-dione] | < 150 nM |  |  | < 150 nM
9 | O=C1CCC(N2Cc3c(OCc4cn(-c5ccc6ncsc6c5)nn4)cccc3C2=O)C(=O)N1 (stereo not shown) [Compound 23, 3-(4-((1-(benzo [d]thiazol-6)-1H-1,2,3-triazol-4-(methoxy)-1-oxoisoindolin-2-)piperidine-2,6-dione] | < 150 nM |  |  | < 150 nM
10 | O=C1CCC(N2Cc3c(OCc4ncc(-c5ccc(OC(F)(F)F)cc5)o4)cccc3C2=O)C(=O)N1 (stereo not shown) [Compound 40, 3-(1-oxo-4-((5-(4-trifluoromethoxyphenyl)oxazol-2-)methoxy)isoindolin-2-) piperidine-2,6-dione] | < 150 nM |  |  | < 150 nM
11 | O=C1CCC(N2Cc3c(OCc4cn(-c5ccc(O[C@@H]6CCOC6)cc5)nn4)cccc3C2=O)C(=O)N1 (stereo partly drawn) [Compound 24, 3-(1-oxo-4-((1-(4-(((R)-tetrahydrofuran-3-)oxy)phenyl)-1H-1,2,3-triazol-4-)methoxy)isoindolin-2-)piperidine-2,6-dione] | < 150 nM |  |  | < 150 nM
12 | O=C1CCC(N2Cc3c(OCc4cn(-c5ccc(OC(F)(F)F)cc5)nn4)cc(F)cc3C2=O)C(=O)N1 (stereo not shown) [Compound 77, 3-(6-fluoro-1-oxo-4-((1-(4-(trifluoromethoxy)phenyl)-1H-1,2,3-triazol-4-yl)methoxy)isoindolin-2-yl) piperidine-2,6-dione] | < 150 nM | < 1000 nM |  | 
13 | COC[C@H](Cc1ccccc1)n1cc(COc2cccc3c2CN(C2CCC(=O)NC2=O)C3=O)nn1 (stereo partly shown) [Compound 55] | < 150 nM | 1000 to 20000 nM |  | 
14 | O=C1CCC(N2Cc3c(OCc4cn(-c5ccc(N6CCOCC6)cc5)nn4)cccc3C2=O)C(=O)N1 (stereo not shown) [Compound 19, 3-(4-((1-(4-morpholinophenyl)-1H-1,2,3-triazol-4-)methoxy)-1-oxoisoindolin-2-) piperidine-2,6-dione] | < 150 nM |  |  | 150 to 20000 nM
15 | O=C1CCC(N2Cc3c(OCc4cn(-c5ccc(Cl)cc5)nn4)cccc3C2=O)C(=O)N1 (stereo not shown) [Compound 74, 3-(4-((1-(4-chlorophenyl)-1H-1,2,3-triazol-4-yl)methoxy)-1-oxoisoindolin-2-yl) piperidine-2,6-dione] | < 150 nM | < 1000 nM |  | 
16 | O=C1CCC(N2Cc3c(NCc4ncc(-c5ccc(OC(F)(F)F)cc5)o4)cccc3C2=O)C(=O)N1 (stereo not shown) [Compound 93] | < 150 nM |  |  | 150 to 20000 nM

Continued, in another order:

Row | IC50 [2] | IC50 [3, 4] | IC50 [3, 5] | Compound | IC50 [1]
17 | < 150 nM |  |  | O=C1CCC(N2Cc3c(OCc4cn(-c5ccc(OCC6CCOCC6)cc5)nn4)cccc3C2=O)C(=O)N1 (stereo not shown) [Compound 29, 3-(1-oxo-4-((1-(4-((2H-tetrahydropyran-4-)methoxy)phenyl)-1H-1,2,3-triazol-4-)methoxy)isoindolin-2-) piperidine-2,6-dione] | 150 to 20000 nM
18 | < 150 nM |  |  | O=C1CCC(N2Cc3c(OCc4nnc(-c5ccc(OC(F)(F)F)cc5)s4)cccc3C2=O)C(=O)N1 (stereo not shown) [Compound 41, 3-(1-oxo-4-((5-(4-trifluoromethoxyphenyl)-1,3,4-thiadiazol-2-)methoxy)isoindolin-2-) piperidine-2,6-dione] | 150 to 20000 nM
19 | < 150 nM | < 1000 nM |  | O=C1CCC(N2Cc3c(OCc4cn(-c5ccc6[nH]ccc6c5)nn4)cccc3C2=O)C(=O)N1 (stereo not shown) [Compound 26, 3-(4-((1-(1H-indol-5-)-1H-1,2,3-triazol-4-)methoxy)-1-oxoisoindolin-2-) piperidine-2,6-dione] | < 150 nM
20 | < 150 nM | > 20000 nM | > 20000 nM | O=C1CCC(N2Cc3c(OCc4ccc(CN5CCOCC5)cc4)cccc3C2=O)C(=O)N1 (stereo not shown) [CC-220, reference compound] | < 150 nM
21 | < 150 nM | > 20000 nM | > 20000 nM | Nc1cccc2c1C(=O)N(C1CCC(=O)NC1=O)C2=O (stereo not shown) [Pomalidomide, pomalidomide, reference compound] | 150 to 20000 nM
22 | < 150 nM | < 1000 nM |  | O=C1CCC(N2Cc3c(OCc4cn(-c5ccc(Cl)c(Cl)c5)nn4)cccc3C2=O)C(=O)N1 (stereo not shown) [Compound 75, 3-(4-((1-(3,4-dichlorophenyl)-1H-1,2,3-triazol-4-yl)methoxy)-1-isoindolin-2-yl) piperidine-2,6-dione] | 
23 | < 150 nM | < 1000 nM |  | COCCn1ccc2cc(-n3cc(COc4cccc5c4CN(C4CCC(=O)NC4=O)C5=O)nn3)ccc21 (stereo not shown) [Compound 28] | < 150 nM
24 | < 150 nM |  |  | O=C1CCC(N2Cc3c(OCc4nnc(-c5ccc(OC(F)(F)F)cc5)o4)cccc3C2=O)C(=O)N1 (stereo not shown) [Compound 43, 3-(1-oxo-4-((5-(4-trifluoromethoxyphenyl)-1,3,4-oxadiazol-2-)methoxy)isoindolin-2-) piperidine-2,6-dione] | < 150 nM
